Experiments:
[1] = molecular target: T1, Mitogen-activated protein kinase kinase kinase 7 (Homo sapiens) (UniProt O43318); test: Inhibition of TAK1 (unknown origin) at 0.1 uM by LanthaScreen Eu kinase binding assay relative to control
T1 sequence (whole entry): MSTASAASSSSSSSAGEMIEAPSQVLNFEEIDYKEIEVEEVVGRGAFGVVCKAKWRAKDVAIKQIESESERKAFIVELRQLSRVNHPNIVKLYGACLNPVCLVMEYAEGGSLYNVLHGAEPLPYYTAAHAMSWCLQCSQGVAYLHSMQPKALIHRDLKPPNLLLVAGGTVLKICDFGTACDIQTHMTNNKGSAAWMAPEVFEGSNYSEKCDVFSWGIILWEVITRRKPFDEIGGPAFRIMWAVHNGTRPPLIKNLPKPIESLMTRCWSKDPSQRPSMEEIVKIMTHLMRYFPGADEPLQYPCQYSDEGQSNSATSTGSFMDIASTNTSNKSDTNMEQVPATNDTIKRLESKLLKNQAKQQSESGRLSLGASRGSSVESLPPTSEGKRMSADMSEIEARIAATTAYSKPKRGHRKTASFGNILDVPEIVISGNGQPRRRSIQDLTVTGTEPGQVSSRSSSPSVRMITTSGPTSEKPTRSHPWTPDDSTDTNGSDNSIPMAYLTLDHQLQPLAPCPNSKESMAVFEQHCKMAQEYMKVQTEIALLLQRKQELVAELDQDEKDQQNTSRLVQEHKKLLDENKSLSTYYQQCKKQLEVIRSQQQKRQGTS

[2] = molecular target: T1, Mitogen-activated protein kinase kinase kinase 7 (Homo sapiens); test: Inhibition of TAK1 (unknown origin) at 1 uM by LanthaScreen Eu kinase binding assay relative to control

Molecule `Cc1cc(NC(=O)Nc2cc(C(C)(C)C)nn2-c2ccccc2)ccc1Oc1cn2ccnc2c(NC2CC2)n1` has an inhibition [1] of 0% and an inhibition [2] of 30%.

Work on `Cc1cc(NC(=O)Nc2cc(C(C)(C)C)nn2-c2ccc(F)cc2)ccc1-c1cnc(NC2CC2)c2nccn12` yielded an inhibition [1] of 0% and an inhibition [2] of 69%.

In the case of `Cc1cc(NC(=O)Nc2cc(C(C)(C)C)nn2-c2ccccc2)ccc1Oc1cnc(NC2CC2)c2nccn12`, the inhibition [1] is reported as 20% and the inhibition [2] is reported as 90%.

`Cc1ccc(C(=O)Nc2cc(C(C)(C)C)nn2-c2ccccc2)cc1Oc1cnc(NC2CC2)c2nccn12` was tested, and the inhibition [1] was 0% and the inhibition [2] was 0%.

Source: ChEMBL document CHEMBL4411291, “Synthesis and anti-tumor activity of imidazopyrazines as TAK1 inhibitors” (Eur J Med Chem, 2019)
